Measurements reported in PubChem BioAssay AID248 (DTP/NCI, 2004).
Values joined by “and” are separate entries in the source; they are usually repeats but may differ in a detail not shown here. Equal entries are not always repeated. Toxic doses and inconclusive results are not listed.

System: L1210 leukemia ip in BDF1 mice, survival T/C
Assay: NCI In Vivo Anticancer Drug Screen. Data for tumor model L1210 Leukemia (intraperitoneal) in B6D2F1 (BDF1) mice
Settings: endpoint: mean survival time, higher = longer survival
Outline: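 Transplantable tumor model; survival measured in treated vs vehicle control mice. Value = treated/control.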

[1] = dose: 50.0 mg/kg/injection, schedule: Q01DX009 (ip), vehicle: saline with Tween-80
[2] = dose: 100.0 mg/kg/injection, schedule: Q01DX009 (ip), vehicle: saline with Tween-80
[3] = dose: 200.0 mg/kg/injection, schedule: Q01DX009 (ip), vehicle: saline with Tween-80
[4] = dose: 100.0 mg/kg/injection, schedule: Q01DX001 (ip), vehicle: saline
[5] = dose: 200.0 mg/kg/injection, schedule: Q01DX001 (ip), vehicle: saline
[6] = dose: 400.0 mg/kg/injection, schedule: Q01DX001 (ip), vehicle: saline
[7] = dose: 12.5 mg/kg/injection, schedule: Q04DX003 (ip), vehicle: saline with Tween-80
[8] = dose: 25.0 mg/kg/injection, schedule: Q04DX003 (ip), vehicle: saline with Tween-80
[9] = dose: 50.0 mg/kg/injection, schedule: Q01DX009 (ip), vehicle: saline
[10] = dose: 100.0 mg/kg/injection, schedule: Q01DX009 (ip), vehicle: saline
[11] = dose: 200.0 mg/kg/injection, schedule: Q01DX009 (ip), vehicle: saline
[12] = dose: 50.0 mg/kg/injection, schedule: Q01DX001 (ip), vehicle: saline
[13] = dose: 100.0 mg/kg/injection, schedule: Q01DX009 (ip), vehicle: Klucel (hydroxypropylcellulose) (HPC)
[14] = dose: 200.0 mg/kg/injection, schedule: Q01DX009 (ip), vehicle: Klucel (hydroxypropylcellulose) (HPC)
[15] = dose: 400.0 mg/kg/injection, schedule: Q01DX009 (ip), vehicle: Klucel (hydroxypropylcellulose) (HPC)
[16] = dose: 100.0 mg/kg/injection, schedule: Q04DX003 (ip), vehicle: saline
[17] = dose: 200.0 mg/kg/injection, schedule: Q04DX003 (ip), vehicle: saline

For `O=C(O)CSC(C(=O)O)c1ccccc1` (stereo not given), the T/C [1] was 93 % of control, the T/C [2] was 92 % of control and the T/C (dose: 100.0 mg/kg/injection, schedule: Q04DX003 (ip), vehicle: saline with Tween-80) was 94 % of control. The T/C [3] was 93 % of control and the T/C (dose: 200.0 mg/kg/injection, schedule: Q04DX003 (ip), vehicle: saline with Tween-80) was 97 % of control.
In the case of `COC1OCC(O)C(NC(C)=O)C1O` (stereo not given), the T/C [4] is reported as 105 % of control, the T/C [5] is reported as 107 % of control and the T/C [6] is reported as 100 % of control.
`c1ccc(N=Nc2ccncc2)cc1` was tested, and the T/C (dose: 6.25 mg/kg/injection, schedule: Q04DX003 (ip), vehicle: saline with Tween-80) was 101 % of control, the T/C [7] was 92 % of control and the T/C [8] was 97 % of control.
With `COc1ccc(Cl)cc1-c1c(C(=O)O)cccc1[N+](=O)[O-]` the T/C (dose: 100.0 mg/kg/injection, schedule: Q01DX001 (ip), vehicle: gum acacia) was 108 % of control, the T/C (dose: 100.0 mg/kg/injection, schedule: Q04DX003 (ip), vehicle: gum acacia) was 102 % of control and the T/C (dose: 200.0 mg/kg/injection, schedule: Q01DX001 (ip), vehicle: gum acacia) was 102 % of control. The T/C (dose: 200.0 mg/kg/injection, schedule: Q04DX003 (ip), vehicle: gum acacia) was 102 % of control, the T/C (dose: 400.0 mg/kg/injection, schedule: Q01DX001 (ip), vehicle: gum acacia) was 102 % of control and the T/C (dose: 400.0 mg/kg/injection, schedule: Q04DX003 (ip), vehicle: gum acacia) was 90 % of control.
`C[N+](C)(CC(=O)Nc1cccc(C(F)(F)F)c1)CC(=O)Nc1cccc(C(F)(F)F)c1` was tested, and the T/C (dose: 12.5 mg/kg/injection, schedule: Q01DX009 (ip), vehicle: saline with Tween-80) was 88 % of control, the T/C (dose: 25.0 mg/kg/injection, schedule: Q01DX009 (ip), vehicle: saline with Tween-80) was 94 % of control and the T/C [1] was 113 % of control.
For `CCN(CC)CCCC(C)N` (stereo not given), the T/C (dose: 12.5 mg/kg/injection, schedule: Q04DX003 (ip), vehicle: saline) was 104 % of control, the T/C (dose: 25.0 mg/kg/injection, schedule: Q04DX003 (ip), vehicle: saline) was 100 % of control and the T/C (dose: 50.0 mg/kg/injection, schedule: Q04DX003 (ip), vehicle: saline) was 101 % of control.
With `CC(NC(=O)C(N)CSC(c1ccccc1)(c1ccccc1)c1ccccc1)C(=O)O` (stereo not given) the T/C (dose: 25.0 mg/kg/injection, schedule: Q01DX009 (ip), vehicle: other) was 121 % of control, the T/C (dose: 25.0 mg/kg/injection, schedule: Q01DX009 (ip), vehicle: saline) was 114 % of control and the T/C [9] was 122 % of control. For the same compound, the T/C [10] was 152 % of control, the T/C (dose: 200.0 mg/kg/injection, schedule: Q01DX009 (ip), vehicle: other) was 88 % of control and the T/C [11] was 111 % of control.
In the case of `CN(C)c1ccc(/C=C\C(=O)c2ccccc2)cc1`, the T/C [12] is reported as 96 % of control, the T/C [9] is reported as 94 % of control and the T/C [4] is reported as 102 % of control. The T/C [13] was 95 % of control, the T/C [10] was 102 % of control and the T/C (dose: 100.0 mg/kg/injection, schedule: Q04DX003 (ip), vehicle: Klucel (hydroxypropylcellulose) (HPC)) was 94 % of control. The T/C [5] was 111 % of control, the T/C [14] was 95 % of control and the T/C [11] was 97 % of control. The T/C (dose: 200.0 mg/kg/injection, schedule: Q04DX003 (ip), vehicle: Klucel (hydroxypropylcellulose) (HPC)) was 93 % of control, the T/C [6] was 94 % of control and the T/C [15] was 97 % of control. For the same compound, the T/C (dose: 400.0 mg/kg/injection, schedule: Q04DX003 (ip), vehicle: Klucel (hydroxypropylcellulose) (HPC)) was 94 % of control.
In the case of `CCNC(=O)c1cc(NC(=O)c2ccc(C(=O)Nc3cc(C(=O)NCC)cc(C4=NCCN4)c3)cc2)cc(C2=NCCN2)c1`, the T/C (dose: 14.25 mg/kg/injection, schedule: Q01DX015 (ip), vehicle: water) is reported as 101 % of control, the T/C (dose: 28.5 mg/kg/injection, schedule: Q01DX015 (ip), vehicle: water) is reported as 98 % of control and the T/C (dose: 57.0 mg/kg/injection, schedule: Q01DX015 (ip), vehicle: water) is reported as 116 % of control.
`CCOC(=O)c1cnc(N)s1` was tested, and the T/C (dose: 100.0 mg/kg/injection, schedule: Q01DX001 (ip), vehicle: Klucel (hydroxypropylcellulose) (HPC)) was 105 % of control, the T/C (dose: 200.0 mg/kg/injection, schedule: Q01DX001 (ip), vehicle: Klucel (hydroxypropylcellulose) (HPC)) was 98 % of control and the T/C (dose: 400.0 mg/kg/injection, schedule: Q01DX001 (ip), vehicle: Klucel (hydroxypropylcellulose) (HPC)) was 102 % of control.
For `CCn1cnc2cc(N=Cc3ccc(N(CCCl)CCCl)cc3)ccc21`, the T/C (dose: 56.3 mg/kg/injection, schedule: Q04DX002 (ip), vehicle: saline) was 106 % of control, the T/C (dose: 112.5 mg/kg/injection, schedule: Q04DX002 (ip), vehicle: saline) was 117 % of control and the T/C (dose: 225.0 mg/kg/injection, schedule: Q04DX002 (ip), vehicle: saline) was 102 % of control.
`NNC(=O)c1ncn(C2OC(CO)C(O)C2O)c1C(=O)NN` (stereo not given) was tested, and the T/C [12] was 102 % of control, the T/C [4] was 98 % of control and the T/C [5] was 102 % of control. For the same compound, the T/C [6] was 98 % of control.
With `O=C(C[N+]12CCC(O)C1C(CO)CC2)c1ccc(Br)cc1` (stereo not given) the T/C [16] was 96 % of control and the T/C [17] was 89 % of control.
`CC(=O)CC(C[N+](=O)[O-])c1ccccc1` (stereo not given) was tested, and the T/C [13] was 100 % of control, the T/C [14] was 100 % of control and the T/C [15] was 100 % of control.
For `CCCCCCCCCCCCCCCCNC(=S)NC1CCCCC1`, the T/C (dose: 30.0 mg/kg/injection, schedule: Q01DX015 (ip), vehicle: carboxymethylcellulose (CMC)) was 104 % of control, the T/C (dose: 60.0 mg/kg/injection, schedule: Q01DX015 (ip), vehicle: carboxymethylcellulose (CMC)) was 98 % of control and the T/C (dose: 100.0 mg/kg/injection, schedule: Q01DX001 (ip), vehicle: acetone) was 100 % of control. For the same compound, the T/C [2] was 102 % of control, the T/C [16] was 101 % of control and the T/C (dose: 120.0 mg/kg/injection, schedule: Q01DX015 (ip), vehicle: carboxymethylcellulose (CMC)) was 94 % of control. For the same compound, the T/C (dose: 200.0 mg/kg/injection, schedule: Q01DX001 (ip), vehicle: acetone) was 88 % of control, the T/C [3] was 96 % of control and the T/C [17] was 97 % of control. For the same compound, the T/C (dose: 240.0 mg/kg/injection, schedule: Q01DX015 (ip), vehicle: carboxymethylcellulose (CMC)) was 94 % of control and 102 % of control, the T/C (dose: 400.0 mg/kg/injection, schedule: Q01DX001 (ip), vehicle: acetone) was 91 % of control and the T/C (dose: 400.0 mg/kg/injection, schedule: Q04DX003 (ip), vehicle: saline) was 101 % of control. The T/C (dose: 480.0 mg/kg/injection, schedule: Q01DX015 (ip), vehicle: carboxymethylcellulose (CMC)) was 101 % of control.
In the case of `O=C(c1ccccc1)C1(c2ccccc2)OP(c2ccccc2)(c2ccccc2)(c2ccccc2)CC1c1ccccc1` (stereo not given), the T/C [7] is reported as 90 % of control and the T/C [8] is reported as 92 % of control.
With `COc1cccc2c1C(=O)c1c(O)c3c(c(O)c1C2=O)C[C@@](O)(/C(C)=N/N1CCCCC1)C[C@@H]3OC1CC(N)C(O)C(C)O1` (stereo not given in full) the T/C (dose: 0.12 mg/kg/injection, schedule: Q01DX009 (ip), vehicle: water) was 114 % of control, the T/C (dose: 0.25 mg/kg/injection, schedule: Q01DX009 (ip), vehicle: water) was 113 % of control and the T/C (dose: 0.25 mg/kg/injection, schedule: Q04DX003 (ip), vehicle: water) was 110 % of control. The T/C (dose: 0.5 mg/kg/injection, schedule: Q01DX009 (ip), vehicle: water) was 117 % of control, the T/C (dose: 0.5 mg/kg/injection, schedule: Q04DX003 (ip), vehicle: water) was 118 % of control and the T/C (dose: 1.0 mg/kg/injection, schedule: Q04DX003 (ip), vehicle: water) was 116 % of control. For the same compound, the T/C (dose: 2.0 mg/kg/injection, schedule: Q01DX009 (ip), vehicle: water) was 119 % of control, the T/C (dose: 3.12 mg/kg/injection, schedule: Q01DX009 (ip), vehicle: saline with Tween-80) was 150 % of control and the T/C (dose: 4.0 mg/kg/injection, schedule: Q01DX009 (ip), vehicle: water) was 114 % of control and 88 % of control. For the same compound, the T/C (dose: 6.25 mg/kg/injection, schedule: Q01DX009 (ip), vehicle: saline with Tween-80) was 123 % of control and the T/C (dose: 16.0 mg/kg/injection, schedule: Q04DX003 (ip), vehicle: water) was 86 % of control.
`Nc1cc2ccc(O)cc2c2ccccc12` was tested, and the T/C (dose: 25.6 mg/kg/injection, schedule: Q04DX002 (ip), vehicle: saline with Tween-80) was 109 % of control, the T/C (dose: 64.0 mg/kg/injection, schedule: Q04DX002 (ip), vehicle: saline with Tween-80) was 91 % of control and the T/C (dose: 160.0 mg/kg/injection, schedule: Q04DX002 (ip), vehicle: saline with Tween-80) was 94 % of control. The T/C (dose: 400.0 mg/kg/injection, schedule: Q04DX002 (ip), vehicle: saline with Tween-80) was 102 % of control.
